Measured values from PubChem BioAssay AID624472 (The Scripps Research Institute Molecular Screening Center, 2012).

Target: Monoacylglycerol lipase ABHD6 (Mus musculus) (UniProt Q8R2Y0)
Test: ABHD6 inhibition in mouse proteome, late-stage follow-up, selectivity assay for DAGLb inhibitor project, biochemical, gel-based competitive ABPP, fluorescence, enantiomers (AID 624472)
Conditions: at 10 µM (top of the series)

Monoacylglycerol lipase ABHD6 (Mus musculus), sequence (Q8R2Y0 whole entry, looked up): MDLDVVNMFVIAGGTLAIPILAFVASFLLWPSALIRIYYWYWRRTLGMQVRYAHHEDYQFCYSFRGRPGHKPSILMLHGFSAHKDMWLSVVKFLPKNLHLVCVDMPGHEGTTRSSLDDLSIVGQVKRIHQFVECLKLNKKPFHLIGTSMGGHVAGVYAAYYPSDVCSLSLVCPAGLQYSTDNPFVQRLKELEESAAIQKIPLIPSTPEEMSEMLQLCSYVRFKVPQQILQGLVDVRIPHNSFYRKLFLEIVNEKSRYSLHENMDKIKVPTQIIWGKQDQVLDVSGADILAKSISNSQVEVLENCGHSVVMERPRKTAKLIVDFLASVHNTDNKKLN

inhibition: 100%
SMILES: O=C(N1CCCCC1Cc1ccccc1)n1cc(-c2ccc(Br)cc2)nn1 (stereo unspecified)
